Article PMC4121272, “Two β-Galactosidases from the Human Isolate Bifidobacterium breve DSM 20213: Molecular Cloning and Expression, Biochemical Characterization and Synthesis of Galacto-Oligosaccharides” (PLoS ONE, 2014)

Assays:
[1] = molecular target: T1, β-gal I (Bifidobacterium breve, UniProt D4BLG2); assay: oNPG hydrolysis, o-nitrophenol release at […] nm, nonlinear regression; assay type: biochemical; settings: competitive vs oNPG; 50 mM sodium phosphate pH 6.5, 30°C
T1 construct: gene BIFBRE_02894; full length, C-terminal His6 tag kept (pET-21a), E. coli T7 Express with GroEL/GroES, IMAC; calculated 116,127 Da; homodimer 220 kDa; GH2; N-terminus from primer MQGKAKT, C-terminus before tag DVTLELI
T1 sequence (D4BLG2 entry or part of it): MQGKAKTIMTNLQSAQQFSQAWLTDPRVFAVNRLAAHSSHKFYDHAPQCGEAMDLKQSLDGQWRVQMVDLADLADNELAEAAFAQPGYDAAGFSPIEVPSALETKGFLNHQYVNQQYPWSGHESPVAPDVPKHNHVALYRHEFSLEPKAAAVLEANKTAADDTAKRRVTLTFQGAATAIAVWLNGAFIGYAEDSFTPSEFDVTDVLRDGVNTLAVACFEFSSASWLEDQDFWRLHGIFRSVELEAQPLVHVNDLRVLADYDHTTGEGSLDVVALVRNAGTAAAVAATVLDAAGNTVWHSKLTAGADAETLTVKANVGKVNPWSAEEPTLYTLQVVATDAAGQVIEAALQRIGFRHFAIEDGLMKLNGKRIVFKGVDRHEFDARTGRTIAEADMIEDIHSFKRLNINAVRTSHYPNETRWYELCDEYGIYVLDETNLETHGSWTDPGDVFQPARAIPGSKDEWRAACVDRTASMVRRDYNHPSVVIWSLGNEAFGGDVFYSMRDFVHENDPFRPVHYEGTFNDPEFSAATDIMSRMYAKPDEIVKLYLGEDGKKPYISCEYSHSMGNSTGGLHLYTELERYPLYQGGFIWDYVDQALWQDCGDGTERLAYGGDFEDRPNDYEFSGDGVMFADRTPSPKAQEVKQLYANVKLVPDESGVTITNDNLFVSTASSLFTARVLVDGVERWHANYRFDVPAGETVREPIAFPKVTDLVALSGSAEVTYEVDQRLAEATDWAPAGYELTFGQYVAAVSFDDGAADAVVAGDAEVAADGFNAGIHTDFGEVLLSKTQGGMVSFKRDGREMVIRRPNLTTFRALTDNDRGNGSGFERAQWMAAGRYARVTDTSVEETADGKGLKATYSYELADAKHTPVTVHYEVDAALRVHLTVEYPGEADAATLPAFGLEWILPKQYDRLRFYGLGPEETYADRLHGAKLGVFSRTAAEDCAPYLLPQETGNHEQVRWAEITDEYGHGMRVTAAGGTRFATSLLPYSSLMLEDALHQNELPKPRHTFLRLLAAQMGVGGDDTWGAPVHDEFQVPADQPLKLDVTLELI

[2] = molecular target: T2, β-gal II (Bifidobacterium breve, UniProt D4BR09); assay: as above; assay type: biochemical; settings: competitive vs oNPG; 50 mM sodium phosphate pH 6.5, 30°C
T2 construct: gene BIFBRE_04539; full length, C-terminal His6 tag kept (pET-21a), E. coli T7 Express with GroEL/GroES, IMAC; calculated 116,594 Da; homodimer 211 kDa; GH2; N-terminus from primer MNTTDDQ, C-terminus before tag DVNLELI
T2 sequence (D4BR09 entry or part of it): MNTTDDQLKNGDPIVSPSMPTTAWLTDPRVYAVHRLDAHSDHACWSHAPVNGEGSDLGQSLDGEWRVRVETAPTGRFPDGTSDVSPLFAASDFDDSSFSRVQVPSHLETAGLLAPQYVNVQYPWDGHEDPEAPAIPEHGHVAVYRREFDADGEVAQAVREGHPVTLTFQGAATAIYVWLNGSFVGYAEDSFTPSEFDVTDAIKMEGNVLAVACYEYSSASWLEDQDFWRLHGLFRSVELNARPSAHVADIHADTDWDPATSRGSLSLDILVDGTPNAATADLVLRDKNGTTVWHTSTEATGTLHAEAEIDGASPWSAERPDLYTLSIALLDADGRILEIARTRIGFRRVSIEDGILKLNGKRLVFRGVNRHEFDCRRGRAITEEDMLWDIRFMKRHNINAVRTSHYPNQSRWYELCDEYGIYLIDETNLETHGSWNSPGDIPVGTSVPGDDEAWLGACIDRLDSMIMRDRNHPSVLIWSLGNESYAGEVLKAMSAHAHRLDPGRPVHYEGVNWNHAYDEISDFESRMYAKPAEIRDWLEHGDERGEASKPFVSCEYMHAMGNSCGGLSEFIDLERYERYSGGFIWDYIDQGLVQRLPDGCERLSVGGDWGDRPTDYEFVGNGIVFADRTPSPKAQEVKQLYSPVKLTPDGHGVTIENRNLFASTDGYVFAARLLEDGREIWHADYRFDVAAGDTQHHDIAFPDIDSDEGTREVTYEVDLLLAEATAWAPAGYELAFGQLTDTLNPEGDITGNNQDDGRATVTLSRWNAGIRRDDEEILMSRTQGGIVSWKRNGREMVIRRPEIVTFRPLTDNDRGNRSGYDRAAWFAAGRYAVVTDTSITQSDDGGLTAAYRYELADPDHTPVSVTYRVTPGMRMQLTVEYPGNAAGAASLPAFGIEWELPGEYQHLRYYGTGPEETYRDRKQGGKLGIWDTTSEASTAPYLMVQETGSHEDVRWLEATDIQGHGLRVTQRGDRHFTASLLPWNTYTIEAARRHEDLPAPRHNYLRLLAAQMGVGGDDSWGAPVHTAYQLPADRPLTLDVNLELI

| SMILES | Ki [1] [mM] | Ki [2] [mM] |
| --- | --- | --- |
| OC[C@H]1OC(O)[C@H](O)[C@@H](O)[C@H]1O (stereo partly drawn) [D-galactose] | 15 ± 3 | 34 ± 5 |
| OC[C@H]1OC(O)[C@H](O)[C@@H](O)[C@@H]1O (stereo partly drawn) [D-glucose] | – | 37 ± 4 |
